# Source: patent US20200371122A1, “BIOMARKER FOR SENESCENT CELLS” (Buck Institute for Research on Aging, priority 2017, published 2020)
# How the values were obtained:
# IMR-90 fibroblasts = assay type: cell-based, human
# Protocol: (§1) Human fetal lung fibroblasts (IMR-90) were cultured in Dulbecco's modified eagle medium (DMEM) supplemented with 10% FBS and penicillin/streptomycin. LL 29 (AnHa) cells were obtained from the ATCC and growth to confluence using the ATCC protocol, but were subcultured as described for IMR-90 before initiation of all experiments. Quiescence was induced by replacing culture media with media containing 0.2% FBS. MCF-7 and MDA-MB-231 breast cancer cells were cultured in RPMI supplemented with 10% FBS and penicillin/streptomycin. All cells were cultured at 3% O2, and used between 25 and 40 population doublings. All cells were mycoplasma free.
# RNA was extracted from cells or tissues using commercially available kits (Isolate II—Bioline for cells; Direct-zol—Zymo for tissues) according to the manufacturer's instructions. cDNA synthesis was performed using a High Capacity cDNA Reverse Transcription Kit (Thermo Fisher) according to the manufacturer's instructions. Quantitative PCR was performed on a LightCycler 480 II (Roche) using primers and probes designed for the Universal Probe Library. Primers and probes used for human transcripts were ACTB: 5′-CCAACCGCGAGAAGATGA (SEQ ID NO:1), 5′-TCCATCACGATGCCAGTG (SEQ ID NO:2), Probe #64; TUBA: 5′-cttcgtctccgccatcag (SEQ ID NO:3), 5′-ttgccaatctggacacca (SEQ ID NO:4), Probe #58; ALOX5: 5′-[…] (SEQ ID NO:5), 5′-[…] (SEQ ID NO:6), Probe #64; ALOX5AP: 5′-ggtctgcggggctacttt (SEQ ID NO:7), 5′-[…] (SEQ ID NO:8), Probe #18; ALOX12: 5′-[…] (SEQ ID NO:9), 5′-agccaggtcgtcaggag (SEQ ID NO:10), Probe #32; ALOX15: 5′-[…] (SEQ ID NO:11), 5′-[…] (SEQ ID NO:12), Probe #76; ALOX15B: 5′-[…] (SEQ ID NO:13), 5′-actgggaggcgaagaagg (SEQ ID NO:14), Probe #51; AKR1C1: 5′-catgcctgtcctgggattt (SEQ ID NO:15), 5′-[…] (SEQ ID NO:16), Probe #49; AKR1C2: 5′-ctatgcgcctgcagaggt (SEQ ID NO:17), 5′-[…] (SEQ ID NO:18), Probe #31; AKR1C3: 5′-[…] (SEQ ID NO:19), 5′-[…] (SEQ ID NO:20), Probe #78; CYSLTR2: 5′-[…] (SEQ ID NO:21), 5′-[…] (SEQ ID NO:22), Probe #18; DPEP1: 5′-gacgtcctgaggctggtg (SEQ ID NO:23), 5′-[…] (SEQ ID NO:24), Probe #9 (SEQ ID NO:25), ELOVL2: 5′-[…] (SEQ ID NO:26), 5′-[…] (SEQ ID NO:27), Probe #53; ELOVL4: 5′-catttggcccatggattc (SEQ ID NO:28), 5′-[…] (SEQ ID NO:29), Probe #31; ELOVL5: 5′-cccttccatgcgtccata (SEQ ID NO:30), 5′-[…] (SEQ ID NO:31), Probe #31; EPHX2: 5′-ttctgctggacaccctgaa (SEQ ID NO:32), 5′-[…] (SEQ ID NO:33), Probe #45; GPX4: 5′-ttcccgtgtaaccagttcg (SEQ ID NO:34), 5′-[…] (SEQ ID NO:35), Probe #36; LTA4H: 5′-ctgctctcacggtccagtc (SEQ ID NO:36), 5′-[…] (SEQ ID NO:37), Probe #64; LTBR2: 5′-[…] (SEQ ID NO:38), 5′-[…] (SEQ ID NO:39), Probe #33; LTC4S: 5′-[…] (SEQ ID NO:40), 5′-[…] (SEQ ID NO:41), Probe #18; PTGDS: 5′-[…] (SEQ ID NO:42), 5′-[…] (SEQ ID NO:43), Probe #36; PTGES: 5′-agagatgcctgcccacag (SEQ ID NO:44), 5′-tggccaccacgtacatctt (SEQ ID NO:45), Probe #4; PTGES2: 5′-[…] (SEQ ID NO:46), 5′-[…] (SEQ ID NO:47), Probe #49; PTGES3 (SEQ ID NO:48), 5′-[…] (SEQ ID NO:49), 5′-[…] (SEQ ID NO:50), Probe #48; PTGIS: 5′-[…] (SEQ ID NO:51), 5′-[…] (SEQ ID NO:52), Probe #45; PTGR1: 5′-atgatggggcagcaagtg (SEQ ID NO:53), 5′-cccatcagaaatggagtgc (SEQ ID NO:54), Probe #64; PTGS1: 5′-[…] (SEQ ID NO:55), 5′-gtggtggtccatgttcctg (SEQ ID NO:56), Probe #81; PTGS2: 5′-gatccccagggctcaaac (SEQ ID NO:57), 5′-[…] (SEQ ID NO:58), Probe #61; TBXAS1: 5′-[…] (SEQ ID NO:59), 5′-tgcctcccgtgtgaatct (SEQ ID NO:60), Probe #73; AREG: 5′-[…] (SEQ ID NO:61), 5′-[…] (SEQ ID NO:62), Probe #73; CCL2: 5′-AGTCTCTGCCGCCCTTCT (SEQ ID NO:63), 5′-GTGACTGGGGCATTGATTG (SEQ ID NO:64), Probe #40; CCL27: 5′-[…] (SEQ ID NO:65), 5′-gctgggtggcagtaggaat (SEQ ID NO:66), Probe #18; CXCL1: 5′-[…] (SEQ ID NO:67), 5′-[…] (SEQ ID NO:68), Probe #52; HGF: 5′-[…] (SEQ ID NO:69), 5′-[…]
# [1] = system: IL-6 secretion in senescent cells; test: IL-6 ELISA on conditioned media of IR-induced senescent cells treated with COX-2/ALOX5 inhibitors; assay type: cell-based, human; conditions: SEN(IR) IMR-90, inhibitor for 10 days
# Protocol: as §1
# Senescence was induced by irradiation with 10 Gy of ionizing radiation. Non-senescent controls (proliferating or quiescent) were placed in the irradiator for an identical period of time without turning on the irradiator. Oncogene-induced senescence was induced via lentiviral overexpression of HRAS^V12, as described previously (Wiley et al. (2016) Cell Metab. 23: 303-314).
# 3×10^4 cells in 12-well plates were treated as indicated in the text, and cultured in 0.5-1 ml serum-free DMEM for 24 hr. CM were collected and clarified at 2,000×g for 10 min. Supernatants were transferred to a tube; cells were trypsinized and counted. CM (2.5 μl) were analyzed by bead-based ELISAs (AlphaLISA, Perkin-Elmer) as instructed by the manufacturer and normalized to cell number.
structure (smiles),measurement,setting,value
CS(=O)(=O)c1ccc(-c2noc(C(F)(F)F)c2-c2ccccc2)cc1 [CAY-10404],number of cells following irradiation,"IMR-90 fibroblasts; 5 Gy IR, 10 days",significantly increased
same,cell number relative to DMSO-treated SEN(IR) cells,IMR-90 fibroblasts; SEN(IR) cells counted for IL-6 ELISA normalization,increase in cell number
same,lowered IL-6 secretion in senescent cells,[1],~70%
